Data: PubChem BioAssay (NCI)
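Grown in 96-well plates, cells were treated for 48 hours with each compound at five concentrations. Insufficient inhibition: endpoint recorded as highest concentration tested. Definition used: TGI = concentration required for complete inhibition of growth.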

Key:
Assay in all cases: NCI-60 cell line screen, 48 h
OVCAR-4 ovarian = test system: OVCAR-4 ovarian
XF 498 CNS = test system: XF 498 CNS
RPMI-8226 leukemia = test system: RPMI-8226 leukemia
SNB-78 CNS = test system: SNB-78 CNS
SK-MEL-5 melanoma = test system: SK-MEL-5 melanoma
MOLT-4 leukemia = test system: MOLT-4 leukemia
KM20L2 colon = test system: KM20L2 colon
OVCAR-8 ovarian = test system: OVCAR-8 ovarian
ACHN renal = test system: ACHN renal
SN12C renal = test system: SN12C renal
RXF 393 renal = test system: RXF 393 renal
SR leukemia = test system: SR leukemia
U251 CNS = test system: U251 CNS
SW-620 colon = test system: SW-620 colon
M14 melanoma = test system: M14 melanoma
A549 NSCLC = test system: A549 NSCLC
SF-295 CNS = test system: SF-295 CNS
UACC-62 melanoma = test system: UACC-62 melanoma
COLO 205 colon = test system: COLO 205 colon
MALME-3M melanoma = test system: MALME-3M melanoma
HOP-92 NSCLC = test system: HOP-92 NSCLC
SNB-19 CNS = test system: SNB-19 CNS
786-0 renal = test system: 786-0 renal
HCT-15 colon = test system: HCT-15 colon
A498 renal = test system: A498 renal
HT29 colon = test system: HT29 colon
DLD-1 colon = test system: DLD-1 colon
HCT-116 colon = test system: HCT-116 colon
NCI-H522 lung = test system: NCI-H522 lung
DMS 273 small cell lung = test system: DMS 273 small cell lung
K-562 leukemia = test system: K-562 leukemia
UACC-257 melanoma = test system: UACC-257 melanoma
SF-268 CNS = test system: SF-268 CNS
DMS 114 small cell lung = test system: DMS 114 small cell lung
HOP-62 NSCLC = test system: HOP-62 NSCLC
IGROV1 ovarian = test system: IGROV1 ovarian
EKVX NSCLC = test system: EKVX NSCLC
SF-539 CNS = test system: SF-539 CNS
HCC-2998 colon = test system: HCC-2998 colon
SNB-75 CNS = test system: SNB-75 CNS
NCI-H226 lung = test system: NCI-H226 lung
SK-MEL-28 melanoma = test system: SK-MEL-28 melanoma
NCI-H23 lung = test system: NCI-H23 lung
HL-60(TB) leukemia = test system: HL-60(TB) leukemia
HOP-18 NSCLC = test system: HOP-18 NSCLC
CCRF-CEM leukemia = test system: CCRF-CEM leukemia
LXFL 529 NSCLC = test system: LXFL 529 NSCLC
SK-OV-3 ovarian = test system: SK-OV-3 ovarian
UO-31 renal = test system: UO-31 renal
NCI-H460 lung = test system: NCI-H460 lung
M19-MEL melanoma = test system: M19-MEL melanoma
KM12 colon = test system: KM12 colon
OVCAR-5 ovarian = test system: OVCAR-5 ovarian
LOX IMVI melanoma = test system: LOX IMVI melanoma
OVCAR-3 ovarian = test system: OVCAR-3 ovarian
SK-MEL-2 melanoma = test system: SK-MEL-2 melanoma
TK-10 renal = test system: TK-10 renal
CAKI-1 renal = test system: CAKI-1 renal

## CCOc1ccc(N2C(=O)C3c4[nH]c5ccccc5c4C4CCC(C(C)(C)C)CC4C3C2=O)cc1 (stereo unspecified)
OVCAR-4 ovarian
  TGI: > 100 µM
XF 498 CNS
  TGI: > 100 µM
RPMI-8226 leukemia
  TGI: > 100 µM
SNB-78 CNS
  TGI: > 100 µM
SK-MEL-5 melanoma
  TGI: > 100 µM
MOLT-4 leukemia
  TGI: > 100 µM
KM20L2 colon
  TGI: > 100 µM
OVCAR-8 ovarian
  TGI: > 100 µM
ACHN renal
  TGI: > 100 µM
SN12C renal
  TGI: > 100 µM
RXF 393 renal
  TGI: 71 µM
SR leukemia
  TGI: > 100 µM
U251 CNS
  TGI: > 100 µM
SW-620 colon
  TGI: > 100 µM
M14 melanoma
  TGI: > 100 µM
A549 NSCLC
  TGI: > 100 µM
SF-295 CNS
  TGI: > 100 µM
UACC-62 melanoma
  TGI: > 100 µM
COLO 205 colon
  TGI: > 100 µM
MALME-3M melanoma
  TGI: > 100 µM
HOP-92 NSCLC
  TGI: > 100 µM
SNB-19 CNS
  TGI: > 100 µM
786-0 renal
  TGI: > 100 µM
HCT-15 colon
  TGI: > 100 µM
A498 renal
  TGI: > 100 µM
HT29 colon
  TGI: > 100 µM
DLD-1 colon
  TGI: > 100 µM
HCT-116 colon
  TGI: > 100 µM
NCI-H522 lung
  TGI: > 100 µM
DMS 273 small cell lung
  TGI: > 100 µM
K-562 leukemia
  TGI: > 100 µM
UACC-257 melanoma
  TGI: > 100 µM
SF-268 CNS
  TGI: > 100 µM
DMS 114 small cell lung
  TGI: > 100 µM
HOP-62 NSCLC
  TGI: > 100 µM
IGROV1 ovarian
  TGI: > 100 µM
EKVX NSCLC
  TGI: > 100 µM
SF-539 CNS
  TGI: > 100 µM
HCC-2998 colon
  TGI: 79.4 µM
SNB-75 CNS
  TGI: > 100 µM
NCI-H226 lung
  TGI: > 100 µM
SK-MEL-28 melanoma
  TGI: > 100 µM
NCI-H23 lung
  TGI: > 100 µM
HL-60(TB) leukemia
  TGI: > 100 µM
HOP-18 NSCLC
  TGI: > 100 µM
CCRF-CEM leukemia
  TGI: > 100 µM
LXFL 529 NSCLC
  TGI: > 100 µM
SK-OV-3 ovarian
  TGI: > 100 µM
UO-31 renal
  TGI: > 100 µM

## N#Cc1ccccc1NC(=O)C(=O)C(C(=O)c1ccccc1-c1ccccc1)C1OC(=O)c2ccccc21 (stereo unspecified)
XF 498 CNS
  TGI: 33.6 µM
RPMI-8226 leukemia
  TGI: 79.7 µM
NCI-H460 lung
  TGI: 40.4 µM
SNB-78 CNS
  TGI: 59.9 µM
SK-MEL-5 melanoma
  TGI: > 100 µM
MOLT-4 leukemia
  TGI: 70 µM
KM20L2 colon
  TGI: 40.8 µM
OVCAR-8 ovarian
  TGI: > 100 µM
ACHN renal
  TGI: 89.4 µM
RXF 393 renal
  TGI: 25.3 µM
U251 CNS
  TGI: 25.6 µM
SW-620 colon
  TGI: 75.5 µM
M14 melanoma
  TGI: 30.6 µM
A549 NSCLC
  TGI: > 100 µM
M19-MEL melanoma
  TGI: 35.3 µM
SF-295 CNS
  TGI: 58.3 µM
UACC-62 melanoma
  TGI: 33.8 µM
COLO 205 colon
  TGI: 43.2 µM
KM12 colon
  TGI: 41.3 µM
MALME-3M melanoma
  TGI: 26.8 µM
HOP-92 NSCLC
  TGI: 38.8 µM
786-0 renal
  TGI: 33.5 µM
A498 renal
  TGI: 45.2 µM
OVCAR-5 ovarian
  TGI: 33 µM
HT29 colon
  TGI: 97.3 µM
DLD-1 colon
  TGI: 32.4 µM
HCT-116 colon
  TGI: 23 µM
NCI-H522 lung
  TGI: 21 µM
K-562 leukemia
  TGI: > 100 µM
UACC-257 melanoma
  TGI: 53.8 µM
SF-268 CNS
  TGI: 38.8 µM
DMS 114 small cell lung
  TGI: 41.6 µM
HOP-62 NSCLC
  TGI: 25.1 µM
IGROV1 ovarian
  TGI: 66.7 µM
EKVX NSCLC
  TGI: 36 µM
LOX IMVI melanoma
  TGI: 32.2 µM
SF-539 CNS
  TGI: 22.7 µM
HCC-2998 colon
  TGI: 29.2 µM
OVCAR-3 ovarian
  TGI: 32.7 µM
SNB-75 CNS
  TGI: 29.9 µM
SK-MEL-2 melanoma
  TGI: 32.1 µM
SK-MEL-28 melanoma
  TGI: 40.4 µM
NCI-H23 lung
  TGI: 26.1 µM
HL-60(TB) leukemia
  TGI: 50.2 µM
CCRF-CEM leukemia
  TGI: > 100 µM
SK-OV-3 ovarian
  TGI: > 100 µM

## CCOP(=O)(OCC)C1C(=O)O[C@H]2CCCC[C@@H]12 (stereo partly specified)
OVCAR-4 ovarian
  TGI: > 100 µM
TK-10 renal
  TGI: > 100 µM
XF 498 CNS
  TGI: > 100 µM
RPMI-8226 leukemia
  TGI: > 100 µM
NCI-H460 lung
  TGI: > 100 µM
SNB-78 CNS
  TGI: > 100 µM
SK-MEL-5 melanoma
  TGI: > 100 µM
MOLT-4 leukemia
  TGI: > 100 µM
KM20L2 colon
  TGI: > 100 µM
OVCAR-8 ovarian
  TGI: > 100 µM
ACHN renal
  TGI: > 100 µM
SN12C renal
  TGI: > 100 µM
RXF 393 renal
  TGI: > 100 µM
U251 CNS
  TGI: > 100 µM
SW-620 colon
  TGI: > 100 µM
CAKI-1 renal
  TGI: > 100 µM
M14 melanoma
  TGI: > 100 µM
A549 NSCLC
  TGI: > 100 µM
M19-MEL melanoma
  TGI: > 100 µM
SF-295 CNS
  TGI: > 100 µM
UACC-62 melanoma
  TGI: > 100 µM
COLO 205 colon
  TGI: > 100 µM
KM12 colon
  TGI: > 100 µM
MALME-3M melanoma
  TGI: > 100 µM
SNB-19 CNS
  TGI: > 100 µM
786-0 renal
  TGI: > 100 µM
HCT-15 colon
  TGI: > 100 µM
A498 renal
  TGI: > 100 µM
OVCAR-5 ovarian
  TGI: > 100 µM
HT29 colon
  TGI: > 100 µM
DLD-1 colon
  TGI: > 100 µM
HCT-116 colon
  TGI: > 100 µM
DMS 273 small cell lung
  TGI: > 100 µM
K-562 leukemia
  TGI: > 100 µM
UACC-257 melanoma
  TGI: > 100 µM
SF-268 CNS
  TGI: > 100 µM
DMS 114 small cell lung
  TGI: > 100 µM
HOP-62 NSCLC
  TGI: > 100 µM
IGROV1 ovarian
  TGI: > 100 µM
EKVX NSCLC
  TGI: > 100 µM
LOX IMVI melanoma
  TGI: > 100 µM
SF-539 CNS
  TGI: > 100 µM
HCC-2998 colon
  TGI: > 100 µM
OVCAR-3 ovarian
  TGI: > 100 µM
SNB-75 CNS
  TGI: > 100 µM
SK-MEL-2 melanoma
  TGI: > 100 µM
SK-MEL-28 melanoma
  TGI: > 100 µM
NCI-H23 lung
  TGI: > 100 µM
HOP-18 NSCLC
  TGI: > 100 µM
CCRF-CEM leukemia
  TGI: > 100 µM
LXFL 529 NSCLC
  TGI: > 100 µM
SK-OV-3 ovarian
  TGI: > 100 µM

## NC(N)=NS(=O)(=O)c1ccc(NC(=O)c2cccc3c(Nc4ccc(S(=O)(=O)N=C(N)N)cc4)c4ccc(Cl)cc4nc23)cc1
OVCAR-4 ovarian
  TGI: > 100 µM
TK-10 renal
  TGI: > 100 µM
XF 498 CNS
  TGI: > 100 µM
RPMI-8226 leukemia
  TGI: > 100 µM
NCI-H460 lung
  TGI: > 100 µM
SNB-78 CNS
  TGI: > 100 µM
SK-MEL-5 melanoma
  TGI: > 100 µM
MOLT-4 leukemia
  TGI: > 100 µM
KM20L2 colon
  TGI: > 100 µM
OVCAR-8 ovarian
  TGI: > 100 µM
ACHN renal
  TGI: > 100 µM
SN12C renal
  TGI: > 100 µM
RXF 393 renal
  TGI: > 100 µM
U251 CNS
  TGI: > 100 µM
SW-620 colon
  TGI: > 100 µM
CAKI-1 renal
  TGI: > 100 µM
M14 melanoma
  TGI: > 100 µM
A549 NSCLC
  TGI: > 100 µM
SF-295 CNS
  TGI: > 100 µM
UACC-62 melanoma
  TGI: > 100 µM
COLO 205 colon
  TGI: > 100 µM
KM12 colon
  TGI: > 100 µM
MALME-3M melanoma
  TGI: > 100 µM
HOP-92 NSCLC
  TGI: 93 µM
SNB-19 CNS
  TGI: > 100 µM
786-0 renal
  TGI: > 100 µM
HCT-15 colon
  TGI: > 100 µM
A498 renal
  TGI: > 100 µM
OVCAR-5 ovarian
  TGI: > 100 µM
HT29 colon
  TGI: > 100 µM
DLD-1 colon
  TGI: > 100 µM
HCT-116 colon
  TGI: > 100 µM
NCI-H522 lung
  TGI: > 100 µM
DMS 273 small cell lung
  TGI: > 100 µM
K-562 leukemia
  TGI: > 100 µM
UACC-257 melanoma
  TGI: > 100 µM
SF-268 CNS
  TGI: > 100 µM
DMS 114 small cell lung
  TGI: > 100 µM
HOP-62 NSCLC
  TGI: > 100 µM
IGROV1 ovarian
  TGI: > 100 µM
EKVX NSCLC
  TGI: > 100 µM
LOX IMVI melanoma
  TGI: > 100 µM
SF-539 CNS
  TGI: > 100 µM
HCC-2998 colon
  TGI: > 100 µM
OVCAR-3 ovarian
  TGI: > 100 µM
SNB-75 CNS
  TGI: > 100 µM
SK-MEL-2 melanoma
  TGI: > 100 µM
SK-MEL-28 melanoma
  TGI: > 100 µM
NCI-H23 lung
  TGI: > 100 µM
HOP-18 NSCLC
  TGI: > 100 µM
CCRF-CEM leukemia
  TGI: > 100 µM
LXFL 529 NSCLC
  TGI: > 100 µM
SK-OV-3 ovarian
  TGI: > 100 µM
UO-31 renal
  TGI: > 100 µM
